Measured values reported in patent US12582721B2, “Molybdenum-based feed supplement for bees” (UNIVERSITE DE VERSAILLES—SAINT-QUENTIN-EN-YVELINES, priority 2020, dated 2026).
Entries after “also recorded” stand apart in the source; their conditions may differ.

How the values were obtained:
[1] = system: bee colonies; test: 4th test in the hives: winter mortality of colonies, California 2020; format: in vivo, bees; details: counted Dec. 31, 2020, 55 hives, Batch 1 27.3%
Method: A second treatment campaign was carried out in the autumn-winter 2020 in apiaries located in California, near San Francisco. This region is particularly vulnerable to winter mortality of bee colonies which can reach as high as 80% in some years.
220 hives distributed over 13 different apiaries in California to the south of San Francisco were selected. Each apiary comprised between 8 and 24 hives. The bees were of different types: 165 hives of Wildflower bees (VSH-Italian) and 55 hives of Beeweaver bees (VSH-Carniolan).
The hives were Langstroth 2 body type hives (15 frames compared to 10 for Dadant hives in Europe). […] 20, 2020 and Oct. 12, 2020.
1 apiary only contained Wildflower type bees. 2 apiaries only contained Beeweaver type bees. The other 10 apiaries comprised Wildflower and Beeweaver bees that were evenly distributed between the 4 batches.
The product Li—Mo2O4-EDTA was introduced on Sep. 20, 2020, and/or on Oct. 12, 2020 by syringe in the form of a concentrated aqueous solution (0.8 g/L) in a sugar syrup into the frame feeder. 10 mL of this solution were introduced and dispersed in 3.5 liters of sugar syrup at 65% sugar and introduced into the hive. […] The control hives only received sugar syrup.
The dead colonies were counted on Dec. 31, 2020. A total of 28 colonies were dead on 31 Dec. 2020, that is 12.73% of the total. The mortality rate is identical for Wildflower bees (21/165) and Beeweaver bees (7/55). The mortality per batch is distributed as follows: • Batch 1: 15 hives/55 hives, that is 27.3% losses • Batch 2: 0 hive/55 hives, that is 0% losses • Batch 3: 10 hives/55 hives, that is 18.2% losses • Batch 4: 3 hives/55 hives, that is 5.5% losses.

[2] = system: bee colonies; test: 3rd test in the hives: winter mortality of colonies, California 2019; format: in vivo, bees; details: single dose 4 mg per hive, 25-28 Oct. 2019, counted Jan. 7, 2020; 26 of 75 lost; control hives 61.8%
Method: A treatment campaign was carried out in the autumn-winter in apiaries located in California, near San Francisco. This region is particularly vulnerable to winter mortality of bee colonies which can reach as high as 80% in some years.
151 hives, distributed over 6 different apiaries in California to the south of San Francisco were selected. The bees were of different types: Wildflower (VSH-Italian), Beeweaver, Carniolan Californian Bee (Pope Canyon), Californian bee Tom and Italian Californian bee (Sam).
The hives were Langstroth 2 body type hives (15 frames compared to 10 for Dadant hives in Europe).
2019 by syringe in the form of a concentrated aqueous solution (8 g/L) in a sugar syrup into the feeding frame. 0.5 mL of this solution was introduced and dispersed in 3.5 liters of sugar syrup at 65% sugar and introduced into the hive. […] The control hives only received sugar syrup.
The surviving colonies were counted on Jan. 7, 2020. A total of 73 colonies out of the initial 151 died, that is an overall mortality of 48.3%.

[3] = system: bees; test: Toxicity study on bees (lifespan of caged bees); format: in vivo
Method: Fifty newly hatched bees (age=1 day) were placed in a special cage with a wax strip, water and food, and were kept in the laboratory oven at a constant temperature of 33° C. and 50% humidity. […] The consumption of water and food was checked every day. Dead bees were counted and removed. For statistical reasons, the experiments were repeated up to 3 times if necessary.

Structure (SMILES) | Mortality of colonies (losses) ([1]; Batch 2: fed on Sep. 20, 2020, 8 mg) [%] | Mortality of colonies (losses) ([1]; Batch 3: fed on Oct. 12, 2020, 8 mg) [%] | Mortality of colonies (losses) ([1]; Batch 4: fed on Sep. 20, 2020 and Oct. 12, 2020) [%] | Winter mortality of colonies [2] [%] | Survival of caged bees versus control group ([3]; 2 mg/L in sucrose solution, p>0.05, χ2=3.36) | Survival of caged bees versus control group ([3]; 20 mg/L in sucrose solution, p>0.05, χ2=0.04)
O.O.O.O.O.O.O=C([O-])CN(CCN(CC(=O)[O-])CC(=O)[O-])CC(=O)[O-].[Li+].[Li+].[O]=[Mo+]12[O][Mo+]1(=[O])[O]2 [Li—Mo2O4-EDTA, Li2[Mo2O4 (EDTA)]·6H2O] | 0 | 18.2 | 5.5 | 34.7 | – | –
O.O.O.O.O.O=C([O-])CN(CCN(CC(=O)[O-])CC(=O)[O-])CC(=O)[O-].[Na+].[Na+].[O]=[Mo+]12[O][Mo+]1(=[O])[O]2 [Na—Mo2O4-EDTA, Na2[Mo2O4 (EDTA)]·5H2O] | – | – | – | – | no significant difference; also recorded: does not induce bee mortality | no significant difference; also recorded: does not induce bee mortality
